This test concerns Primary human melanocytes. The test is described as follows: Melanin content in-vitro assay after siRNA transfection. The test is classed as cell-based. Also noted: dose or concentration left out as unconfirmed. Conditions: 72 hours; average of 3 readings. Here is the method: Ten siRNA double strands of which one strand has the oligonucleotide as given below were synthetically prepared and used to estimate the potential as skin lightening agent using the melanin content in-vitro assay. It is clear to a person skilled in this area that specifying a single strand is sufficient to fully define the double stranded siRNA. The in-vitro assay was carried out as below: Primary human melanocytes were cultured for 24 hrs. Cells were transfected with Mirus Trans IT-TKO transfection reagent and duplex oligomers in culture media. […] After 1 hour at 60° C., absorbance was measured at 400 nm. Melanin content is expressed as % melanin content over scramble treated cells. The experiments were carried out and the data on melanin content as a percentage of the control sample is summarized as an average of 3 readings in table 1. Kojic acid is known to complete action within 72 hours.

The values below come from US9295631B2, “Skin lightening composition” (Conopco, Inc., priority 2012, dated 2016).

For `O=c1cc(CO)occ1O` [Kojic acid], the “% control melanin” value is given as 76%.
